Substitutions are numbered along the chain they refer to. Values after ≈ are worked out from the molar mass of the structure shown. Read-outs that look alike come from different tables or passages of the source. Marks after values point to notes of the source that are not given here.
How the values were obtained:
GS = details: relative to Glufos; cited from earlier work
E. coli ATCC 25922 = test: Broth microdilution MIC in chemically defined minimal medium; assay type: cell-based; details: for phenotype induced by treatment (L-Gln dependence of growth): E. coli in minimal medium with or without L-Gln
E. coli GS [1] = biological target: T1, E. coli GS (Escherichia coli, UniProt P0A9C5); details: cited from earlier work
E. coli ATCC 29522 = test: Growth curves; assay type: cell-based
[2] = biological target: recombinant N-His6-tagged GS from E. coli (Escherichia coli, UniProt P0A9C5); test: biochemical; assay type: biochemical; details: for kinact: pH 7.4
[3] = biological target: recombinant N-His6-tagged GS from S. aureus (Staphylococcus aureus, UniProt P0A040); test: biochemical; assay type: biochemical; details: for kinact: pH 7.4
recombinant N-His6-tagged GS from S. aureus, sequence (P0A040 whole entry): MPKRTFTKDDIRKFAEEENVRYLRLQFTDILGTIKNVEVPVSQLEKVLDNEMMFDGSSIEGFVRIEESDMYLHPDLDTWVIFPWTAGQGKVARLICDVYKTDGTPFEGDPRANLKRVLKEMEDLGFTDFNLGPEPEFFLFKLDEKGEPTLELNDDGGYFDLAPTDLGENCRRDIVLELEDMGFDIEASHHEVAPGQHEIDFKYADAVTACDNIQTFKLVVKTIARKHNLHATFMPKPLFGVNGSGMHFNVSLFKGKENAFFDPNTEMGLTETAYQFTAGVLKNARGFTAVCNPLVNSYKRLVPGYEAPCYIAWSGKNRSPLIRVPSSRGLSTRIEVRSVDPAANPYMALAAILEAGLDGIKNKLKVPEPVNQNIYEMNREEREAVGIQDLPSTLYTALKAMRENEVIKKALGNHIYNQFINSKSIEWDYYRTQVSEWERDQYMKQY

[4] = biological target: recombinant N-His6-tagged GS from Homo sapiens (Homo sapiens, UniProt P15104); test: biochemical; assay type: biochemical; details: for kinact: pH 7.4
recombinant N-His6-tagged GS from Homo sapiens, sequence (P15104 whole entry): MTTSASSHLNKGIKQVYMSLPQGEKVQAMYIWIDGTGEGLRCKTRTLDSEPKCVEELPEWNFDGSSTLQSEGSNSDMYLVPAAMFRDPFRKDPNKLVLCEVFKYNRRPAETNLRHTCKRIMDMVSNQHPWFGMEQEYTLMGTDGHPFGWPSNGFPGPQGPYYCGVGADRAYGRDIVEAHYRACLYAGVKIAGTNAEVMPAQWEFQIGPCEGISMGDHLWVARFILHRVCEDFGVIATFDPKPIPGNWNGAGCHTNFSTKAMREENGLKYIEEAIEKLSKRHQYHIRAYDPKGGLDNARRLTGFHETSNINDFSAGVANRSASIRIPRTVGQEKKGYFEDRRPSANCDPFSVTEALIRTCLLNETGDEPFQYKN

[5] = system: unadenylylated E. coli GS; details: read-out: KI (literature); cited from earlier work
M. tuberculosis = details: in vivo, cited from earlier work
E. coli GS [6] = biological target: T1, E. coli GS; details: cited from earlier work; remark: listed apart in the source
human GS = details: cited from earlier work
E. coli GS [7] = biological target: T1, E. coli GS; assay type: biochemical; details: apparent, saturating ATP (10 mM) and NH3 (10 mM)
recombinant S. aureus GS = recombinant S. aureus GS (Staphylococcus aureus, UniProt P0A040); assay type: biochemical; details: apparent, saturating ATP (10 mM) and NH3 (10 mM)
recombinant S. aureus GS, sequence (P0A040 whole entry): as the sequence (P0A040 whole entry) above

recombinant human GS = recombinant human GS (Homo sapiens, UniProt P15104); assay type: biochemical; details: apparent, saturating ATP (10 mM) and NH3 (10 mM)
recombinant human GS, sequence (P15104 whole entry): as the sequence (P15104 whole entry) above

[8] = system: GS isolated from Leishmania donovani; details: read-out: apparent Km for L-Glu (literature); cited from earlier work
[9] = 23 °C, pH 7.2 phosphate buffer; isomerization to TδL-Thr; cited from earlier work
[10] = substrate: N[C@@H](CCC(=O)O)C(=O)O; test: purified protein, by the assay type; assay type: biochemical; details: pH 7.4
[11] = substrate: Nc1ncnc2c1ncn2[C@@H]1O[C@H](COP(=O)(O)OP(=O)(O)OP(=O)(O)O)[C@@H](O)[C@H]1O; test: purified protein, by the assay type; details: other: apparent; saturating L-Glu (50 mM) and NH3 (10 mM); pH 7.4; 37.0 °C
[12] = end point, minimal medium, no amino acid supplement, 37 °C, 18–24 h
[13] = minimal medium supplemented with 5 mM L-Glu
[14] = apparent, Kitz–Wilson fit, 37 °C
[15] = read-out: apparent Km for ATP (literature)

CP(=O)(O)C(O)CC(N)C(=O)O (centres unmarked) [γ-hydroxylated variant of Glufos]
increase of the rate of GS activation (GS): 50%

C[C@H](NC(=O)[C@H](C)NC(=O)[C@@H](N)CCP(C)(=O)[O-])C(=O)O.[Na+] [bialaphos sodium salt, Glufos-L-Ala-L-Ala tripeptide, reference compound]
phenotype induced by treatment (L-Gln dependence of growth) (E. coli ATCC 25922): confirmed

CS(=O)(CCC(N)C(=O)O)=NP(=O)(O)O (centres unmarked) [MetSox-Pi, phospho-methionine sulfoximine]
active site occupancy (E. coli GS [1]): ~ 80%

C[P@](=O)(CC[C@H](N)C(=O)O)OP(=O)(O)O [Glufos-Pi, phospho-glufosinate]
number of GS active sites occupied (of 12) (E. coli GS [1]): 11

C[C@H](N)C(=O)N[C@@H](C)C(=O)NC(CCP(C)(=O)O)C(=O)O (stereo partly drawn) [AAG, L-Ala-L-Ala-Glufos]
phenotype induced by treatment (L-Gln dependence of growth) (E. coli ATCC 25922): glutamine auxotrophy | MIC90 (E. coli ATCC 25922; [12]): 0.0005 mM (≈ 0.162 µg/mL) | MIC90 (E. coli ATCC 25922; [13]): 0.001 mM (≈ 0.323 µg/mL) | time for which growth was fully suppressed (E. coli ATCC 29522; 2 μM): > 66 h

CS(=N)(=O)CC[C@H](N)C(=O)O (some centres unmarked) [MetSox, Methionine sulfoximine]
difference in inhibitor efficiency (kinact/KI) for E. coli and human GS [2]: 250 fold | kinact/KI [2]: 100 ± 40 min^−1μM^−1 ×10^3 | kinact [2]: 0.4 ± 0.1 min⁻¹ | kinact/KI ([3]; apparent inhibitor efficiency): 28 ± 9 min^−1μM^−1 ×10^3 | kinact/KI ([4]; apparent inhibitor efficiency): 0.4 ± 0.3 min^−1μM^−1 ×10^3 | kinact [4, 14]: 0.4 ± 0.2 min⁻¹ | Ki [5]: 2000 nM | tolerability (M. tuberculosis; guinea pig): well tolerated | efficacy in guinea pig lung infection model (M. tuberculosis): effective and synergistic with isoniazid

NC[C@H]1O[C@H](O[C@H]2[C@H](O)[C@@H](O[C@H]3O[C@H](CO)[C@@H](O)[C@H](N)[C@H]3O)[C@H](N)C[C@@H]2N)[C@H](O)[C@@H](O)[C@@H]1O [kanamycin, reference compound]
MIC (E. coli ATCC 25922; control antibiotic on every plate, minimal medium): 0.008 mM (≈ 3.88 µg/mL)

Nc1ncnc2c1ncn2[C@@H]1O[C@H](COP(=O)(O)OP(=O)(O)OP(=O)(O)O)[C@@H](O)[C@H]1O [ATP, adenosine triphosphate]
Km (E. coli GS [6]; [15]): 0.1 to 0.7 mM | Km (human GS; [15]): 1.8 to 2.8 mM

N[C@@H](CC[C@]1(O)CNC1=O)C(=O)O [TβL, Tabtoxinine-β-lactam]
kinact/KI (inhibitor efficiency) [2]: 180 ± 70 min^−1μM^−1 | difference in inhibitor efficiency (kinact/KI) for E. coli and human GS ([2]; E. coli GS versus human GS): 90 fold | kinact/KI ([2]; apparent inhibitor efficiency): 180 ± 70 min^−1μM^−1 ×10^3 | kinact [2, 14]: 0.3 ± 0.1 min⁻¹ | recovery of GS activity after dialysis of inhibition complex ([2]; several days of dialysis at 4 °C and 37 °C): could not be recovered | kinact/KI (inhibitor efficiency) [3]: 8 ± 3 min^−1μM^−1 | kinact/KI ([3]; apparent inhibitor efficiency): 8 ± 3 min^−1μM^−1 ×10^3 | kinact [3, 14]: 0.4 ± 0.1 min⁻¹ | kinact/KI (inhibitor efficiency) [4]: 2 ± 1 min^−1μM^−1 | kinact/KI ([4]; apparent inhibitor efficiency): 2 ± 1 min^−1μM^−1 ×10^3 | kinact [4, 14]: 0.3 ± 0.1 min⁻¹

CP(=O)(O)CCC(N)C(=O)O (centres unmarked) [Glufos, glufosinate]
kinact/KI [2]: 11700 M⁻¹ s⁻¹ | difference in inhibitor efficiency (kinact/KI) for E. coli and human GS ([2]; E. coli GS versus human GS): 120 fold | kinact [2]: 0.7 min⁻¹ | kinact/KI [3]: 500 M⁻¹ s⁻¹ | kinact [3]: 0.4 min⁻¹ | kinact/KI [4]: 100 M⁻¹ s⁻¹ | kinact [4]: 0.9 min⁻¹ | Ki [5]: 1000 nM

N[C@@H](CCC(=O)O)C(=O)O [L-Glu]
kcat (L-Glu) (E. coli GS [7]): 131.7 ± 5 s⁻¹ | Km (E. coli GS [7]; read-out: Km (L-Glu)): 7.2 ± 0.8 mM | kcat (L-Glu) (recombinant S. aureus GS): 23.33 ± 1.67 s⁻¹ | Km (recombinant S. aureus GS; read-out: Km (L-Glu)): 52 ± 7 mM | kcat (L-Glu) (recombinant human GS): 85 ± 5 s⁻¹ | Km (recombinant human GS; read-out: Km (L-Glu)): 37 ± 5 mM | Km (E. coli GS [6]; read-out: apparent Km for L-Glu (literature)): 0.8 to 6.6 mM | Km (human GS; read-out: L-Glu Km (literature), recombinant human enzyme expressed in E. coli, colorimetric assay): 3.5 ± 0.7 mM | Km [8]: 26.3 ± 0.4 mM

tabtoxin [TβL-Thr]
phenotype induced by treatment (L-Gln dependence of growth) (E. coli ATCC 25922): glutamine auxotrophy | MIC90 (E. coli ATCC 25922; [12]): 0.0005 mM | MIC90 (E. coli ATCC 25922; [13]): 0.001 mM | growth curve with L-Gln supplementation (E. coli ATCC 29522; 2 μM, L-Gln supplementation 2.5 mM): matched the control | growth with L-Gln supplementation (E. coli ATCC 29522; 2 μM, medium supplemented with 0.1 mM L-Gln): recovered to near control levels | time after which growth started to recover (E. coli ATCC 29522; 2 μM, minimal medium): 26 h | time for which growth was suppressed (E. coli ATCC 29522; 100 μM): > 50 h | isomerization half-life [9]: 37 h

B1: E. coli GS (EC) (Escherichia coli K-12) (protein)
chain: SAEHVLTMLNEHEVKFVDLRFTDTKGKEQHVTIPAHQVNAEFFEEGKMFDGSSIGGWKGINESDMVLMPDASTAVIDPFFADSTLIIRCDILEPGTLQGYDRDPRSIAKRAEDYLRSTGIADTVLFGPEPEFFLFDDIRFGSSISGSHVAIDDIEGAWNSSTQYEGGNKGHRPAVKGGYFPVPPVDSAQDIRSEMCLVMEQMGLVVEAHHHEVATAGQNEVATRFNTMTKKADEIQIYKYVVHNVAHRFGKTATFMPKPMFGDNGSGMHCHMSLSKNGVNLFAGDKYAGLSEQALYYIGGVIKHAKAINALANPTTNSYKRLVPGYEAPVMLAYSARNRSASIRIPVVSSPKARRIEVRFPDPAANPYLCFAALLMAGLDGIKNKIHPGEAMDKNLYDLPPEEAKEIPQVAGSLEEALNELDLDREFLKAGGVFTDEAIDAYIALRREEDDRVRMTPHPVEFELYYSV
Km [10]: 7.2 ± 0.8 mM | kcat [10]: 132 ± 5 s⁻¹ | kcat/Km [10]: 18300 ± 1670 M⁻¹ s⁻¹

B2: S. aureus GS (SA) (Staphylococcus aureus subsp. aureus N315) (protein)
chain: MPKRTFTKEDIRKFAEEENVRYLRLQFTDILGTIKNVEVPVSQLEKVLDNEMMFDGSSIEGFVRIEESDMYLHPDLDTWVIFPWTAGQGKVARLICDVYKTDGTPFEGDPRANLKRVLKEMEDLGFTDFNLGPEPEFFLFKLDEKGEPTLELNDDGGYFDLAPTDLGENCRRDIVLELEDMGFDIEASHHEVAPGQHEIDFKYADAVTACDNIQTFKLVVKTIARKHNLHATFMPKPLFGVNGSGMHFNVSLFKGKENAFFDPNTEMGLTETAYQFTAGVLKNARGFTAVCNPLVNSYKRLVPGYEAPCYIAWSGKNRSPLIRVPSSRGLSTRIEVRSVDPAANPYMALAAILEAGLDGIKNKLKVPEPVNQNIYEMNREEREAVGIQDLPSTLYTALKAMRENEVIKKALGNHIYNQFINSKSIEWDYYRTQVSEWERDQYMKQY
Km [10]: 52 ± 7 mM | kcat [10]: 23.3 ± 1.67 s⁻¹ | kcat/Km [10]: 450 ± 66.7 M⁻¹ s⁻¹

B3: recombinant E. coli GS (Escherichia coli K-12) (protein)
chain: MSAEHVLTMLNEHEVKFVDLRFTDTKGKEQHVTIPAHQVNAEFFEEGKMFDGSSIGGWKGINESDMVLMPDASTAVIDPFFADSTLIIRCDILEPGTLQGYDRDPRSIAKRAEDYLRSTGIADTVLFGPEPEFFLFDDIRFGSSISGSHVAIDDIEGAWNSSTQYEGGNKGHRPAVKGGYFPVPPVDSAQDIRSEMCLVMEQMGLVVEAHHHEVATAGQNEVATRFNTMTKKADEIQIYKYVVHNVAHRFGKTATFMPKPMFGDNGSGMHCHMSLSKNGVNLFAGDKYAGLSEQALYYIGGVIKHAKAINALANPTTNSYKRLVPGYEAPVMLAYSARNRSASIRIPVVSSPKARRIEVRFPDPAANPYLCFAALLMAGLDGIKNKIHPGEAMDKNLYDLPPEEAKEIPQVAGSLEEALNELDLDREFLKAGGVFTDEAIDAYIALRREEDDRVRMTPHPVEFELYYSV
Km [11]: 0.7 ± 0.1 ^a mM | kcat [11]: 122 s⁻¹ | kcat/Km [11]: 173000 M⁻¹ s⁻¹

B4: recombinant S. aureus GS (Staphylococcus aureus) (protein)
chain: B2 chain with E9D
Km [11]: 1.8 ± 0.1 mM | kcat [11]: 12 s⁻¹ | kcat/Km [11]: 6670 M⁻¹ s⁻¹
